In PubChem BioAssay (NCI):
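Tested at 5 concentrations; 48 h exposure; 96-well plates; endpoints linearly interpolated, else capped at highest concentration. TGI marks complete inhibition of growth.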

Assays:
Assay in all cases: inhibition of tumour cell growth, NCI panel, 48 h
NCI-H522 lung = system: NCI-H522 lung
SF-268 CNS = system: SF-268 CNS
SF-295 CNS = system: SF-295 CNS
T-47D breast = system: T-47D breast
SNB-75 CNS = system: SNB-75 CNS
NCI-H460 lung = system: NCI-H460 lung
A498 renal = system: A498 renal
COLO 205 colon = system: COLO 205 colon
UACC-62 melanoma = system: UACC-62 melanoma
NCI-H23 lung = system: NCI-H23 lung
SK-MEL-5 melanoma = system: SK-MEL-5 melanoma
MDA-MB-435 = system: MDA-MB-435
EKVX NSCLC = system: EKVX NSCLC
MDA-N = system: MDA-N
HL-60(TB) leukemia = system: HL-60(TB) leukemia
MCF7 breast = system: MCF7 breast
SW-620 colon = system: SW-620 colon
KM12 colon = system: KM12 colon
U251 CNS = system: U251 CNS
A549 NSCLC = system: A549 NSCLC
OVCAR-5 ovarian = system: OVCAR-5 ovarian
SNB-19 CNS = system: SNB-19 CNS
IGROV1 ovarian = system: IGROV1 ovarian
CAKI-1 renal = system: CAKI-1 renal
SF-539 CNS = system: SF-539 CNS
ACHN renal = system: ACHN renal
RXF 393 renal = system: RXF 393 renal
K-562 leukemia = system: K-562 leukemia
SK-OV-3 ovarian = system: SK-OV-3 ovarian
M14 melanoma = system: M14 melanoma
786-0 renal = system: 786-0 renal
CCRF-CEM leukemia = system: CCRF-CEM leukemia
HCT-116 colon = system: HCT-116 colon
DU-145 prostate = system: DU-145 prostate
SR leukemia = system: SR leukemia
HOP-62 NSCLC = system: HOP-62 NSCLC
OVCAR-4 ovarian = system: OVCAR-4 ovarian
MALME-3M melanoma = system: MALME-3M melanoma
PC-3 prostate = system: PC-3 prostate
OVCAR-3 ovarian = system: OVCAR-3 ovarian
TK-10 renal = system: TK-10 renal
SK-MEL-2 melanoma = system: SK-MEL-2 melanoma
HCT-15 colon = system: HCT-15 colon
UACC-257 melanoma = system: UACC-257 melanoma
HOP-92 NSCLC = system: HOP-92 NSCLC
HS 578T breast = system: HS 578T breast
HCC-2998 colon = system: HCC-2998 colon
LOX IMVI melanoma = system: LOX IMVI melanoma
MDA-MB-231 breast = system: MDA-MB-231 breast
NCI-H226 lung = system: NCI-H226 lung
OVCAR-8 ovarian = system: OVCAR-8 ovarian
MOLT-4 leukemia = system: MOLT-4 leukemia
NCI/ADR-RES ovarian = system: NCI/ADR-RES ovarian
HT29 colon = system: HT29 colon
SN12C renal = system: SN12C renal
SK-MEL-28 melanoma = system: SK-MEL-28 melanoma
RPMI-8226 leukemia = system: RPMI-8226 leukemia
UO-31 renal = system: UO-31 renal

Measured: TGI

O=c1[nH]c(=O)n(C2OC(CO)C(O)C2O)cc1Oc1ccccc1 (configuration not stated)
not listed: RPMI-8226 leukemia | UO-31 renal
> 100 µM: all other assays above

NC12CCC(CC1=O)C2 (configuration not stated)
not listed: NCI-H522 lung | NCI-H460 lung | A498 renal | SNB-19 CNS | CAKI-1 renal | RXF 393 renal | 786-0 renal
> 100 µM: all other assays above
